# Experimental data from patent US20230279001A1, “IMIDAZO[1,2-A]PYRIDINE COMPOUNDS FOR THE TREATMENT OF AUTOIMMUNE DISEASE” (Hoffmann-La Roche Inc., priority 2020, published 2023).
# Columns and labels:
# [1] = biological target: TLR9 (Homo sapiens (Human), UniProt Q9NR96); assay: HEK293-Blue-hTLR-9 cells assay; type: cell-based; conditions: HEK293-Blue-hTLR9 cells, ODN2006 stimulation, 20 hrs, SEAP reporter; read-out: HEK/hTLR9 IC50
# Description: A stable HEK293-Blue-hTLR-9 cell line was purchased from InvivoGen (Cat. #: hkb-htlr9, San Diego, Calif., USA). These cells were originally designed for studying the stimulation of human TLR9 by monitoring the activation of NF-κB. A SEAP (secreted embryonic alkaline phosphatase) reporter gene was placed under the control of the IFN-β minimal promoter fused to five NF-κB and AP-1-binding sites. The SEAP was induced by activating NF-κB and AP-1 via stimulating HEK-Blue hTLR9 cells with TLR9 ligands. Therefore the reporter expression was declined by TLR9 antagonist under the stimulation of a ligand, such as ODN2006 (Cat. #: tlr1-2006-1, Invivogen, San Diego, Calif., USA), for incubation of 20 hrs. The cell culture supernatant SEAP reporter activity was determined using QUANTI-Blue™ kit (Cat. #: rep-qb1, Invivogen, San Diego, Calif., USA) at a wavelength of 640 nm, a detection medium that turns purple or blue in the presence of alkaline phosphatase.
# HEK293-Blue-hTLR9 cells were incubated at a density of 250,000˜450,000 cells/mL in a volume of 170 μL in a 96-well plate in Dulbecco's Modified Eagle's medium (DMEM) containing 4.5 g/L glucose, 50 U/mL penicillin, […], 2 mM L-glutamine, 10% (v/v) heat-inactivated fetal bovine serum with addition of 20 μL test compound in a serial dilution in the presence of final DMSO at 1% and 10 μL, of 20 uM ODN2006 in above DMEM, perform incubation under 37° C. in a CO2 incubator for 20 hrs. Then 20 μL of the supernatant from each well was incubated with 180 μL, Quanti-blue substrate solution at 37° C. for 2 h and the absorbance was read at 620655 nm using a spectrophotometer. The signaling pathway that TLR9 activation leads to downstream NF-κB activation has been widely accepted, and therefore similar reporter assay was modified for evaluating TLR9 antagonist.
# [2] = Parallel Artificial Membrane Permeability Assay (PAMPA); type: in vitro ADME; conditions: for Membrane Retention / Papp at 4 h: PAMPA, pH 7.40, 4 hours; for Papp at 4 h: pH 7.4, room temperature, read-out: PAMPA Pe; for PAMPA category: classified by Pe and membrane retention
# Procedure: PAMPA (Parallel Artificial Membrane Permeability Assay) is a first-line permeability screen for drug candidates. This assay mimics the transcellular absorption conditions using an artificial phospholipid membrane and generates a permeability value that can be used for compound ranking and optimization as well as input parameters for in silico models to predict intestinal absorption.
# Permeation experiments are carried out in hydrophobic PVDF 96-well microtiter filter plates (MultiScreen Filter Plate, Millipore, #MAIPN4550). Each well is coated with PVDF membrane, which is prepared with 5 μL Dodecane (Sigma, D221104) that contains 1% lecithin (Sigma, P3556-1G).
# The typical PAMPA experimental protocol is as follows: The donor plate is placed on a Teflon acceptor plate that has been pre-filled with […] of 100 mM PBS buffer (2.6 g KH2PO4 and 18.5 g K2HPO4·3H2O are dissolved in about 1000 mL of ultra-pure water and mixed thoroughly. The pH is adjusted to 7.40±0.05, using either 1 M sodium hydroxide or 1M hydrochloric acid) containing 5% DMSO. The filter on the bottom of each acceptor well is filled with 300 μL of 100 mM PBS buffer (2.6 g KH2PO4 and 18.5 g K2HPO4·3H2O are dissolved in about 1000 mL of ultra-pure water, mixed thoroughly. The pH was adjusted to 7.40±0.05, using either 1 M sodium hydroxide or 1M hydrochloric acid). The resulting sandwich is incubated at room temperature under constant shaking (300 rpm) for 4 hours. The sandwich is then disassembled. Before incubation, spike 20 μL dosing solution and mix with 250 μL PBS and 130 μL quench solution (acetonitrile) as TO sample. After incubation, collect 270 μL solutions from acceptor chamber, followed by the addition of 130 μL acetonitrile. Collect 20 μL solution from donor chamber and add 250 μL PBS and 130 μL acetonitrile. The concentration of compound in all samples are determined by LC-MS/MS and the equations for determining the permeability (Pe, 10^−6 cm/s) are as follows.
# VD is the volume of the donor well; VR is the volume of the acceptor well; Area is the active surface area of membrane; Time is the incubation time (14,400 s in this assay); CR and CD are the concentrations of compound in acceptor and donor solutions, respectively, at the completion of the assay; C0 is the concentration of compound in donor solution before incubation.
# The main readout of the PAMPA assay is the permeability value Pe expressed in 10^−6 cm/s. Secondary readouts determined are the amounts of compound in the donor and acceptor compartments as well as compound retention in the membrane. Depending on the permeation rate and the membrane retention, compounds are classified as “low” (Pe<0.2 and membrane retention<20%) or “medium & high” (Pe>=0.2; or Pe<0.2 and membrane retention>=20%). Each sample is measured in triplicate; the standard deviation is determined for the permeation constant Pe.
# [3] = Human microsome stability assay; type: in vitro ADME; conditions: human liver microsomes, 1 μM test compound, 37° C., NADPH regenerating system
# Procedure: The human microsomal stability assay is used for early assessment of metabolic stability of a test compound in human liver microsomes.
# Human liver microsomes (Cat. NO.: 452117, Corning, USA; Cat. NO.: H2610, Xenotech, USA) were preincubated with test compound for 10 minutes at 37° C. in 100 mM potassium phosphate buffer, pH 7.4. The reactions were initiated by adding NADPH regenerating system. The final incubation mixtures contained 1 μM test compound, 0.5 mg/mL liver microsomal protein, 1 mM MgCl2, 1 mM NADP, 1 unit/mL isocitric dehydrogenase and 6 mM isocitric acid in 100 mM potassium phosphate buffer, pH 7.4. After incubation times of 0, 3, 6, 9, 15 and 30 minutes at 37° C., 300 μL of cold acetonitrile (including internal standard) was added to 100 μL incubation mixture to terminate the reaction. Following precipitation and centrifugation, the amount of compound remaining in the samples were determined by LC-MS/MS. Controls of no NADPH regenerating system at zero and 30 minutes were also prepared and analyzed.
# TLR9, sequence (Q9NR96 26-1032): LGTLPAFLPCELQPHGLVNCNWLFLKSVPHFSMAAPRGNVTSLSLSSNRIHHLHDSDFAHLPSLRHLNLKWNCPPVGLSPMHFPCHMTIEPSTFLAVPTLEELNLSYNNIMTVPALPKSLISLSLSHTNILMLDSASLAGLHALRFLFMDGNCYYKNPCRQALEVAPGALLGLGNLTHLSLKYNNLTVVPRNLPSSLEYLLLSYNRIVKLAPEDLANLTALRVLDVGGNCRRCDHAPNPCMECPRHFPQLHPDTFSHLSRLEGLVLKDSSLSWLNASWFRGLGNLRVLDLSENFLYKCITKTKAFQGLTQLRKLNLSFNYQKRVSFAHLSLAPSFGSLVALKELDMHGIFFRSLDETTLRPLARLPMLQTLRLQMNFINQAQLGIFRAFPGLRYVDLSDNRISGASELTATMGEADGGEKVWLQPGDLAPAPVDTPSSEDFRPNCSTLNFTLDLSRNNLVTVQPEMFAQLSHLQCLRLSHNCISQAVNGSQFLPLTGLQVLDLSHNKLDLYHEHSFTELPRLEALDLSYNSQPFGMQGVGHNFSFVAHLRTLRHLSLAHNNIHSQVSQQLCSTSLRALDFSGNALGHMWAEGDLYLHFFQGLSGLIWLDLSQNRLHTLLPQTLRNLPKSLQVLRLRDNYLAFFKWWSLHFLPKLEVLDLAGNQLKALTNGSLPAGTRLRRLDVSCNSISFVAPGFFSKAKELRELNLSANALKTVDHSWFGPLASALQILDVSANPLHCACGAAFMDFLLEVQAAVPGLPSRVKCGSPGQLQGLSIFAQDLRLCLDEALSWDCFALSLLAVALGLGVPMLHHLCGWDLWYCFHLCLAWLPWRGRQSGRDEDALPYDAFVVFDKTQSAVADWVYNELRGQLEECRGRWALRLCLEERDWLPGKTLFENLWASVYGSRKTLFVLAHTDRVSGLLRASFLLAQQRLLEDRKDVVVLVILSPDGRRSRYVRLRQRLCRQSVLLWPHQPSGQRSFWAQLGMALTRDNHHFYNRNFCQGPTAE
Compound,IC50 [1] [nM],Membrane Retention [2] [%],Papp at 4 h [2] [×10⁻⁶ cm/s],PAMPA category [2],Clearance of Human microsome [3] [mL/min/kg]
"Cc1cc(-c2ccc(N3CCC(N4CCNCC4)CC3)nc2C(C)C)cn2ccnc12 [Example 2, 6-[2-isopropyl-6-(4-piperazin-1-yl-1-piperidyl)-3-pyridyl]-8-methyl-imidazo[1,2-a]pyridine]",151,22.73,0.87,medium & high (“medium & high” (Pe>=0.2; or Pe<0.2 and membrane retention>=20%)),–
"Cc1cn2cc(-c3ccc(N4CCC(N5CCNCC5)CC4)nc3C(C)C)cc(C)c2n1 [Example 3, 6-[2-isopropyl-6-(4-piperazin-1-yl-1-piperidyl)-3-pyridyl]-2,8-dimethyl-imidazo[1,2-a]pyridine]",198,20.3,0.8,medium & high (“medium & high” (Pe>=0.2; or Pe<0.2 and membrane retention>=20%)),6.15
"Cc1cn2cc(-c3ccc(N4CCC(N)CC4)nc3C(C)C)cc(C)c2n1 [Example 4, 1-[5-(2,8-dimethylimidazo[1,2-a]pyridin-6-yl)-6-isopropyl-2-pyridyl]piperidin-4-amine]",154,17.52,1.2,medium & high (“medium & high” (Pe>=0.2; or Pe<0.2 and membrane retention>=20%)),8.25
"Cc1cn2cc(-c3ccc(N4CCNC[C@H]4CO)nc3C(C)C)cc(C)c2n1 [Example 5, [(2S)-1-[5-(2,8-dimethylimidazo[1,2-a]pyridin-6-yl)-6-isopropyl-2-pyridyl]piperazin-2-yl]methanol]",227,17.82,2.1,medium & high (“medium & high” (Pe>=0.2; or Pe<0.2 and membrane retention>=20%)),–
"Cc1c(-c2ccc(N3CCC(N4CCNCC4)CC3)nc2C(C)C)cn2ccnc2c1C [Example 7, 6-[2-isopropyl-6-(4-piperazin-1-yl-1-piperidyl)-3-pyridyl]-7,8-dimethyl-imidazo[1,2-a]pyridine]",112,20.4,1.2,medium & high (“medium & high” (Pe>=0.2; or Pe<0.2 and membrane retention>=20%)),–
"Cc1cn2cc(-c3ccc(N4CCN5CCNCC5C4)nc3C(C)C)cc(C)c2n1 (stereo not drawn) [Example 8, 2-[5-(2,8-dimethylimidazo[1,2-a]pyridin-6-yl)-6-isopropyl-2-pyridyl]-1,3,4,6,7,8,9,9a-octahydropyrazino[1,2-a]pyrazine]",294,34.49,0.85,medium & high (“medium & high” (Pe>=0.2; or Pe<0.2 and membrane retention>=20%)),–
"Cc1cc(-c2cc(C)c3nccn3c2)cnc1N1CCC(N2CCN(C)CC2)CC1 [Example 9, 8-methyl-6-[5-methyl-6-[4-(4-methylpiperazin-1-yl)-1-piperidyl]-3-pyridyl]imidazo[1,2-a]pyridine]",169,49,0.88,medium & high (“medium & high” (Pe>=0.2; or Pe<0.2 and membrane retention>=20%)),7.20
"Cc1cc(-c2ccc(N3CCC(N4CCNCC4)CC3)nc2C(F)F)cn2ccnc12 [Example 10, 6-[2-(difluoromethyl)-6-(4-piperazin-1-yl-1-piperidyl)-3-pyridyl]-8-methyl-imidazo[1,2-a]pyridine]",217,17.7,0.81,medium & high (“medium & high” (Pe>=0.2; or Pe<0.2 and membrane retention>=20%)),9.15
"CCc1nc(N2CCC(N3CC4(CNCCO4)C3)CC2)ccc1-c1cc(C)c2nccn2c1 [Example 14, 2-[1-[6-ethyl-5-(8-methylimidazo[1,2-a]pyridin-6-yl)-2-pyridyl]-4-piperidyl]-5-oxa-2,8-diazaspiro[3.5]nonane]",216,–,–,–,9.45
"CCc1nc(N2CCC(N3C[C@@H](N)[C@H](OC)C3)CC2)ccc1-c1cc(C)c2nccn2c1 [Example 15, (3R,4R)-1-[1-[6-ethyl-5-(8-methylimidazo[1,2-a]pyridin-6-yl)-2-pyridyl]-4-piperidyl]-4-methoxy-pyrrolidin-3-amine]",286,–,–,–,6.15
"CCc1nc(N2CCC(N3C[C@@H](N)[C@H](OC)C3)CC2)ccc1-c1cc(C)c2nc(C)cn2c1 [Example 17, (3R,4R)-1-[1-[5-(2,8-dimethylimidazo[1,2-a]pyridin-6-yl)-6-ethyl-2-pyridyl]-4-piperidyl]-4-methoxy-pyrrolidin-3-amine]",224,–,–,–,–
"CCc1nc(N2CCC(C)(N)CC2)ccc1-c1cc(C)c2nc(C)cn2c1 [Example 20, 1-[5-(2,8-dimethylimidazo[1,2-a]pyridin-6-yl)-6-ethyl-2-pyridyl]-4-methyl-piperidin-4-amine]",108,–,–,–,–
"CCc1nc(N2CCC(N3CCNCC3)CC2)ccc1-c1cc(C)c2nc(C)cn2c1 [Example 21, 6-[2-ethyl-6-(4-piperazin-1-yl-1-piperidyl)-3-pyridyl]-2,8-dimethyl-imidazo[1,2-a]pyridine]",140,28,0.73,medium & high (“medium & high” (Pe>=0.2; or Pe<0.2 and membrane retention>=20%)),–
"COc1nc(N2CCC(N3CCNCC3)CC2)ccc1-c1cc(C)c2nccn2c1 [Example 25, 6-[2-methoxy-6-(4-piperazin-1-yl-1-piperidyl)-3-pyridyl]-8-methyl-imidazo[1,2-a]pyridine]",92,–,–,–,6.15
